# Measurements as given in patent publication US20120022261A1, “Colorant Compositions Containing an Oxonol Dye” (priority 2005, published 2012).
# Legend:
# [1] = Solubility in organic solvents (EtOH, MEK); type: physicochemical; settings: for Solubility (g/l) EtOH: solvent EtOH; for Solubility (g/l) MEK: solvent MEK (methylethyl ketone)
# [2] = 50° C. test (storage at 50° C. over 18 hours in a hot-air cabinet); type: physicochemical; design: key: A positive test result indicates that the product still exists in a solid and powdery state after the heat treatment; If the product undergoes a sintering process and/or starts to melt at this temperature, the test result is classified as negative; settings: solid product stored at 50° C. for 18 hours in a hot-air cabinet
# Protocol: The 50° C. test involves storing the product to be tested at 50° C. over a period of 18 hours in a hot-air cabinet. […] If the product undergoes a sintering process and/or starts to melt at this temperature, the test result is classified as negative.
SMILES,Solubility (g/l) EtOH [1] [g/L],Solubility (g/l) MEK [1] [g/L],50° C. Test [2]
CCCCC[N+](CCCCC)(CCCCC)CCCCC.CCn1c([O-])c(C=CC=C2C(=O)N(CCCOC(C)C)C(=O)C(C#N)=C2C)c(C)c(C#N)c1=O [reference compound],45,32,negative
"CC1=C(C#N)C(=O)N(C(C)C)C(=O)C1=CC=Cc1c(C)c(C#N)c(=O)n(C(C)C)c1[O-].CCCC[N+](CCCC)(CCCC)CCCC [i-propyl, i-propyl, tetrabutyl-ammonium]",,,positive
"CCCC[N+](CCCC)(CCCC)CCCC.CCCCn1c([O-])c(C=CC=C2C(=O)N(CC)C(=O)C(C#N)=C2C)c(C)c(C#N)c1=O [ethyl, n-butyl, tetrabutyl-ammonium]",14.3,41.4,positive
CC1=C(C#N)C(=O)N(CC(C)C)C(=O)C1=CC=Cc1c(C)c(C#N)c(=O)n(CC(C)C)c1[O-].CCCC[N+](CCCC)(CCCC)CCCC,4,56.2,positive
CC1=C(C#N)C(=O)N(CCCOC(C)C)C(=O)C1=CC=Cc1c(C)c(C#N)c(=O)n(C)c1[O-].CCCC[N+](CCCC)(CCCC)CCCC [reference compound],21.3,28.5,negative
CCCC[N+](CCCC)(CCCC)CCCC.CCn1c([O-])c(C=CC=C2C(=O)N(CCCOC(C)C)C(=O)C(C#N)=C2C)c(C)c(C#N)c1=O [reference compound],146,231,negative
"CCCCN1C(=O)C(=CC=Cc2c(C)c(C#N)c(=O)n(CCCC)c2[O-])C(C)=C(C#N)C1=O.CCCC[N+](CCCC)(CCCC)CCCC [n-butyl, n-butyl, tetrabutyl-ammonium]",35.5,98,positive
"CCCC[N+](CCCC)(CCCC)CCCC.CCN1C(=O)C(=CC=Cc2c(C)c(C#N)c(=O)n(CC)c2[O-])C(C)=C(C#N)C1=O [ethyl, ethyl, tetrabutyl-ammonium]",5.6,63.2,positive
"CCCCCN1C(=O)C(=CC=Cc2c(C)c(C#N)c(=O)n(CCCCC)c2[O-])C(C)=C(C#N)C1=O.CCCC[N+](CCCC)(CCCC)CCCC [n-pentyl, n-pentyl, tetrabutyl-ammonium]",50,380,positive
"CCCC[N+](CCCC)(CCCC)CCCC.CCCN1C(=O)C(=CC=Cc2c(C)c(C#N)c(=O)n(CCC)c2[O-])C(C)=C(C#N)C1=O [n-propyl, n-propyl, tetrabutyl-ammonium]",14,69,positive
CCCC[N+](CCCC)(CCCC)CCCC.CCCCn1c([O-])c(C=CC=C2C(=O)N(CCCOC(C)C)C(=O)C(C#N)=C2C)c(C)c(C#N)c1=O [reference compound],197,339,negative
CCCC[N+](CCCC)(CCCC)CCCC.COCCN1C(=O)C(=CC=Cc2c(C)c(C#N)c(=O)n(CCOC)c2[O-])C(C)=C(C#N)C1=O [reference compound],,,negative
